# According to patent publication US20220288201A1, “COMBINATION THERAPY FOR TREATING RAS-MUTANT CANCERS” (H. Lee Moffitt Cancer and Research Institute, Inc., priority 2019, published 2022):
# Like-named read-outs stand apart in the source and are kept apart here.
# Columns and labels:
# [1] = system: A375; experiment: Colony growth assay, A375 (BRAF mutant positive control); type: cell-based; conditions: Homo sapiens, A-375
# Source text: (§1) FIG. 1. […] All other lines are BRAF wild-type and have activating mutations in RAS.
# (§2) While oncogene-induced senescence due to overexpressed mutant RAS is an important tumor suppression mechanism, multiple variants of senescence exist (Ito, Y., et al. Trends Cell Biol 27:820-832 (2017); Lasry, A. & Ben-Neriah, Y. Trends Immunol 36:217-28 (2015); Ewald, J. A., et al. J Natl Cancer Inst 102:1536-46 (2010); Mooi, W. J. & Peeper, D.S. N Engl J Med. 355:1037-46 (2006)). With this in mind, experiments were conducted to determine whether paradoxical ERK activation, as driven by BRAFi exposure in the context of RAS-mutant cancers, could cause elevation of ERK pathway signaling to the point of causing senescence-like growth arrest akin to oncogene-induced senescence. To determine the effects of BRAFi treatment on RAS-mutant melanomas, a panel of four BRAFi were screened against eight RAS-mutant melanoma cell lines. the FDA-approved BRAFi vemurafenib, dabrafenib, encorafenib (Dummer, R., et al. J Clin Oncol 31(2013)), and the ‘paradox-breaker PLX8394, which was designed to elicit no paradoxical ERK activation (Zhang, C., et al. Nature 526:583-6 (2015)) were tested.
# [2] = system: ICP 298; experiment: Colony growth assay, ICP 298; type: cell-based; conditions: Homo sapiens, ICP 298, RAS Q61L
# Source text: as §1, §2
# [3] = system: Sk-mel-119; experiment: Colony growth assay, Sk-mel-119; type: cell-based; conditions: Homo sapiens, Sk-mel-119, RAS Q61R
# Source text: as §1, §2
# [4] = system: Sk-mel-2; experiment: Colony growth assay, Sk-mel-2; type: cell-based; conditions: Homo sapiens, Sk-mel-2, RAS Q61R
# Source text: as §1, §2
# [5] = system: 501mel; experiment: Colony growth assay, 501mel; type: cell-based; conditions: Homo sapiens, RAS G12D
# Source text: as §1, §2
# [6] = system: GAK; experiment: Colony growth assay, GAK; type: cell-based; conditions: Homo sapiens
# Source text: as §1, §2
# [7] = system: MelJUSO; experiment: Colony growth assay, MelJUSO; type: cell-based; conditions: Homo sapiens, MEL-JUSO, RAS Q61L (HRASG13D)
# Source text: as §1, §2
# [8] = system: CP66; experiment: Colony growth assay, CP66; type: cell-based; conditions: Homo sapiens, CP66, RAS Q61K
# Source text: as §1, §2
# [9] = system: WM1366; experiment: Colony growth assay, WM1366; type: cell-based; conditions: Homo sapiens, WM1366, RAS Q61L
# Source text: as §1, §2
# [10] = system: RAS-mutant melanoma cell lines; experiment: BRAFi screen against panel of RAS-mutant melanoma cell lines; type: cell-based, human; conditions: for IC50: Homo sapiens, four 'BRAFi sensitive' RAS-mutant cell lines, read-out: IC50, growth inhibition
# Source text: as §1, §2
# [11] = system: IL-6 secretion, 501 MEL melanoma cell lines; experiment: IL-6 secreted in the media of 501 MEL cells; type: cell-based, human; conditions: acute 24 hours or chronic 7 days, vs control-treated
# Source text: Substantial increases in the secretion of this canonical senescence-associated cytokine are reliably measured in all settings, up to 3-fold in magnitude, showing essential features of the ERK-hyperactivation mediated senescence response.
# [12] = system: NRASQ61R-mutant melanoma cells (C57BL/6); experiment: Transplanted NRASQ61R-mutant melanoma model in C57BL/6 mice; type: in vivo, mouse; conditions: dabrafenib 3.5 mg/kg/day, RMP1-14 thrice weekly, start day 7
# Protocol: FIG. 11. Transplanted NRASQ61R-mutant melanoma cells (C57BL/6) regress when dabrafenib-induced PEASA is combined with anti-PD1 immunotherapy. 1 million melanoma cells were injected in both flanks of C57BL/6 mice and therapy started at 7 days. […] mice per condition across 2 independent trials; mean tumor volume +/−SEM.
# Because senescence is associated with a specific inflammatory gene expression signature, RNAseq was used to characterize responsive NRAS-mutant cell lines (IPC298, SK-MEL-119) following BRAFi exposure.
# [13] = system: IPC 298 and 501mel cell line xenografts; experiment: IPC 298 and 501mel cell line xenografts in mice; type: in vivo, mouse; conditions: 3.5 mg/kg daily; NOD/SCID gamma or athymic nude mice
# Protocol: FIG. 4. […] (A) IPC 298 cell line xenografts were established in NOD/SCID gamma mice by co-injecting 1 million IPC 298 cells subcutaneously. Daily treatment with vehicle (n=20) or 3.5 mg/kg dabrafenib (n=20) was initiated at ‘Day 0,’ or 7 days post injection. Tumor volume was tracked by caliper measurement, calculated using V=½lw2. Student's t-test compares differences in tumor volumes at sacrifice in both conditions versus vehicle control (B) Representative image of mice from (A) at experimental endpoint. (C) Phospho-ERK western-blotting of tumor lysates from a short-term pharmacodynamic experiment from IPC 298 lysates harvested from mice treated orally with vehicle or 3.5 mg/kg dabrafenib for 5 days. (D) 501mel cell line xenografts were established in athymic nude mice by co-injecting 4 million 501mel cells mixed with 1 million normal dermal fibroblasts (NDF) per site. Mice were treated with vehicle (n=11) or 3.5 mg/kg dabrafenib (n=10), 12 days post injection. As engraftment with 501mel/NDF is inefficient, only tumors with diameters >3 mm at treatment initiation are detailed here. Student's t-test compares differences in tumor volumes at sacrifice in both conditions versus vehicle control. (E) Representative image of mice from (D) at experimental endpoint. […] Quantitative data represent at least three independent experiments. […]
# [14] = cited from earlier work; for induction of cutaneous squamous cell carcinoma (cuSCC), patients: treated patients, averaged across multiple studies
# [15] = in vivo; cited from earlier work
# [16] = GAK, RAS Q61K, colony growth, read-out: IC50
# [17] = A375, RAS WT (BRAFV600E), colony growth, read-out: IC50
"IC50 [1, 17]",SMILES,IC50 [1],IC50 [2],IC50 [3],IC50 [4],IC50 [5],"IC50 [6, 16]",IC50 [7],IC50 [8],IC50 [9],IC50 [10],increase in secretion of IL-6 [11],tumor response (tumor volume) [12],tumor growth in vivo [13],"induction of cutaneous squamous cell carcinoma (cuSCC), patients [14]",plasma elimination half-life [15],activity against RAS mutant cell lines ([10]; RAS mutant cell lines),IC50 [6],"cuSCC harboring activating RAS mutations ([14]; cuSCC from treated patients, 10-20% in sporadic cuSCC)"
,CC(C)(C)c1nc(-c2cccc(NS(=O)(=O)c3c(F)cccc3F)c2F)c(-c2ccnc(N)n2)s1 [Dabrafenib],2.5 nM,31 nM,1.8 nM,240 nM,21 nM,700 nM,100 nM,1000 nM,> 5000 nM,< 100 nM,up to 3 fold,"partial responses, but progressive disease",prevents RAS-mutant tumor growth,6%,,,,
0.71 nM,COC(=O)N[C@@H](C)CNc1nccc(-c2cn(C(C)C)nc2-c2cc(Cl)cc(NS(C)(=O)=O)c2F)n1 [Encorafenib],,0.9 nM,0.49 nM,550 nM,7.5 nM,1600 nM,26 nM,520 nM,> 2000 nM,< 100 nM,,,,,approximately 6 hours,,,
180 nM,O=C(c1c(F)ccc(NS(=O)(=O)N2CC[C@@H](F)C2)c1F)c1c[nH]c2ncc(-c3cnc(C4CC4)nc3)cc12 [PLX8394],,> 1000 nM,> 1000 nM,> 1000 nM,> 1000 nM,> 1000 nM,> 1000 nM,> 1000 nM,> 1000 nM,,,,,,,never showed activity,,

SMILES,"IC50 [1, 17]",IC50 [1],IC50 [2],IC50 [3],IC50 [4],IC50 [5],"IC50 [6, 16]",IC50 [7],IC50 [8],IC50 [9],IC50 [10],increase in secretion of IL-6 [11],tumor response (tumor volume) [12],tumor growth in vivo [13],"induction of cutaneous squamous cell carcinoma (cuSCC), patients [14]",plasma elimination half-life [15],activity against RAS mutant cell lines ([10]; RAS mutant cell lines),IC50 [6],"cuSCC harboring activating RAS mutations ([14]; cuSCC from treated patients, 10-20% in sporadic cuSCC)"
CCCS(=O)(=O)Nc1ccc(F)c(C(=O)c2c[nH]c3ncc(-c4ccc(Cl)cc4)cc23)c1F [Vemurafenib],68 nM,,380 nM,540 nM,2500 nM,3000 nM,,> 6600 nM,> 6600 nM,> 6600 nM,,,,,22%,,,5300 nM,Approximately 60%
